Experiments:
MV4-11 cell line = assay: Antiproliferative activity (ATPLite cell viability), MV4-11; assay type: cell-based; conditions: Homo sapiens, MV4-11 (acute myeloid leukemia, FLT3-ITD), 72 h incubation, read-out: Cytotoxicity (EC50) on MV411 cell line
Procedure: (§1) The characteristics of the cell lines used are as follows (Table 2):
(§2) MV4-11 and MOLM-13 cell lines are cultured in the culture medium specified in Table 2 above and according to the supplier's recommendations. The tests are carried out in 96-well plates. The cells are divided in two at D0. At D1, they are seeded and treated with the compounds at various concentrations and incubated for 72 h at 37° C. and 5% CO2. The dilution of the compounds from stock solutions in DMSO (Sigma, #D8418) was made semi-logarithmically for a final concentration in the culture medium of 0.1%. At day 4, cell viability is evaluated by assaying the ATP released by the living cells using the ATPLite® kit (Perkin Elmer, #6016947). The EC50 values (concentration of the compound necessary to obtain 50% of the maximum effect) are calculated using curve-fitting software.

MOLM-13 cell line = assay: Antiproliferative activity (ATPLite cell viability), MOLM-13; assay type: cell-based; conditions: Homo sapiens, MOLM-13 (acute myeloid leukemia, FLT3-ITD), 72 h incubation, read-out: Cytotoxicity (EC50) on MOLM13 cell line
Procedure: as §1, §2

JAK3 = target: T1, JAK3 (Homo sapiens, UniProt P52333); assay: LanthaScreen TR-FRET binding test, JAK3; conditions: recombinant JAK3 15 nM, kinase tracer 236 3 nM, 25° C., 1 hour; read-out: Inhibition (IC50) of JAK3 enzyme
T1 construct: purchased Life Technologies PV3855
T1 sequence (P52333 1-1124): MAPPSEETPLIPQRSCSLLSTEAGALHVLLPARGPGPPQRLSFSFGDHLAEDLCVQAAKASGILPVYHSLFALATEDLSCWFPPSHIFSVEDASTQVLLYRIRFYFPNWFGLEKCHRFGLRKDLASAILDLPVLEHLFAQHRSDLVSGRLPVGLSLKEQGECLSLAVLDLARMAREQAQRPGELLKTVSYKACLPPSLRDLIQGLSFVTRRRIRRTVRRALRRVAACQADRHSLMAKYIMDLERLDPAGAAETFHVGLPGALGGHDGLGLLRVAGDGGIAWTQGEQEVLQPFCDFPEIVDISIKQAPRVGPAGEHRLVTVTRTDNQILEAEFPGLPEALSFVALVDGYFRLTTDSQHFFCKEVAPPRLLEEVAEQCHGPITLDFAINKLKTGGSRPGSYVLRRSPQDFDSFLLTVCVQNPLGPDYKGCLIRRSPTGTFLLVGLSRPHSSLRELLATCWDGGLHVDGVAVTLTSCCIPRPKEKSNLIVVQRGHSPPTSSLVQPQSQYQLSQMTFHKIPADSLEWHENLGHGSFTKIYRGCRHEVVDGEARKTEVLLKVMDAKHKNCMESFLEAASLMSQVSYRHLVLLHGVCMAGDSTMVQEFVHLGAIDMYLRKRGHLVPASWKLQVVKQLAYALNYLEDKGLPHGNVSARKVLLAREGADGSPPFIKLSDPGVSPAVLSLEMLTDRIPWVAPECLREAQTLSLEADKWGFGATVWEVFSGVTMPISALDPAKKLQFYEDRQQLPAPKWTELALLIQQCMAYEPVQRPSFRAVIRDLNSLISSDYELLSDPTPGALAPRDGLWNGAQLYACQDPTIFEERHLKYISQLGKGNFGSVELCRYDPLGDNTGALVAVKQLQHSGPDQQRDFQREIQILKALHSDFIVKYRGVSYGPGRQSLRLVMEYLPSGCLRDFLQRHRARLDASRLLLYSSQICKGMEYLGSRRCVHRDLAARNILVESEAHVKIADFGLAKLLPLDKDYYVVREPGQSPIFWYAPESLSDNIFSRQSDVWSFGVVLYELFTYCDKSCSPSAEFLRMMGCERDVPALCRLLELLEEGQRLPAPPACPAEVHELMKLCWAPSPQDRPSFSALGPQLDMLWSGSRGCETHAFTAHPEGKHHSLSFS
Procedure: FLT3 (#PV3182), JAK2 (#PV4210) and JAK3 (#PV3855) recombinant enzymes were purchased from Life Technologies. FLT3-ITD (#0778-0000-1) and FLT3^D835Y (#14-610) proteins were purchased from ProQinase and Merck Millipore, respectively. All the tests were carried out in 384-well plates. The principle of these binding tests is based on the LanthaScreen® TR-FRET methodology from Life Technologies.
The reaction mixture (15 μL total volume) contains the following compounds: 15 nM JAK2 or JAK3, 150 nM kinase tracer 236 (Life Technologies, #PV5592) for JAK2 or 3 nM for JAK3 and 6 nM LanthaScreen® anti-GST antibody coupled to a europium chelate (Life Technologies, #PV5594) for both enzymes.
The compounds are evaluated at 8 different concentrations prepared by making dilutions from a starting 10 mM stock solution in dimethylsulfoxide (DMSO) (Sigma, #D8418). The final DMSO concentration in the test is 1%. The reaction is carried out at 25° C. for 1 hour and detected on the EnVision® reader (Perkin Elmer) according to the recommendations of the supplier, Life Technologies.
The results are presented (Table 1) as the concentration values of the compound at which 50% of the kinase activity is inhibited, IC50 (μM), generated using the PRISM software (GraphPad).

| Compound | EC50 (MV4-11 cell line) | EC50 (MOLM-13 cell line) | IC50 (JAK3) |
| --- | --- | --- | --- |
| CN1CCN(c2ccc3cc2OCCOCCOc2ccc4c(c2)-c2nc(ncc2CC4)N3)CC1 [Compound 3] | 2.8 nM | 5.6 nM | 54 nM |
| c1cc(N2CCNCC2)c2cc1Nc1ncc3c(n1)-c1cc(ccc1CC3)OCCOCCO2 [Compound 5] | 7.2 nM | 1.8 nM | 30 nM |
| c1cc(N2CCC(N3CCOCC3)C2)c2cc1Nc1ncc3c(n1)-c1cc(ccc1CC3)OCCOCCO2 (stereo not drawn) [Compound 7] | 40 nM | 34 nM | 120 nM |
| c1cc(N2CCC(N3CCCCC3)CC2)c2cc1Nc1ncc3c(n1)-c1cc(ccc1CC3)OCCOCCO2 [Compound 10] | 6.5 nM | 6 nM | 60 nM |
| c1cc(OCCN2CCCC2)c2cc1Nc1ncc3c(n1)-c1cc(ccc1CC3)OCCOCCO2 [Compound 14] | 9.2 nM | 4.5 nM | 70 nM |
| OC1CCN(c2ccc3cc2OCCOCCOc2ccc4c(c2)-c2nc(ncc2CC4)N3)CC1 [Compound 19] | 12 nM | 13.4 nM | 30 nM |
| CN1CC=C(c2ccc3cc2OCCOCCOc2ccc4c(c2)-c2nc(ncc2CC4)N3)CC1 [Compound 23] | 20 nM | 6.6 nM | 110 nM |
| c1cc(N2CC3CNCC3C2)c2cc1Nc1ncc3c(n1)-c1cc(ccc1CC3)OCCOCCO2 (stereo not drawn) [Compound 29] | 7.6 nM | 15 nM | 18 nM |
| CN(C)C1CCN(c2ccc3cc2OCCOCCOc2ccc4c(c2)-c2nc(ncc2CC4)N3)C1 (stereo not drawn) [Compound 30] | 12 nM | 15 nM | 18 nM |
| CN1CCN(c2ccc3cc2OCCOCCOc2ccc4c(c2)-c2nc(ncc2CC4)N3)CC1(C)C [Compound 40] | 21 nM | 20 nM | 17.6 nM |
| c1cc(N2CC3CCC(C2)N3)c2cc1Nc1ncc3c(n1)-c1cc(ccc1CC3)OCCOCCO2 [Compound 42] | 3 nM | 7 nM | 13 nM |
| c1cc(N2C[C@H]3C[C@@H]2CN3)c2cc1Nc1ncc3c(n1)-c1cc(ccc1CC3)OCCOCCO2 [Compound 44] | 10 nM | 8.8 nM | 35 nM |
